Data from patent US7700782B2, “Compounds 569” (AstraZeneca AB, priority 2007, dated 2010).
Where a name gives a salt, the structure may show the parent alone.

Molecular target: T1, Adrenergic β2 (Homo sapiens, UniProt P07550)
T1 construct: Adherent H292 cells were removed from tissue culture flasks; endogenous in cells; host or cells: H292 cells
Experiment: Adrenergic β2 mediated cAMP production in H292 cells (AlphaScreen cAMP detection)
Type: cell-based
Conditions: Intrinsic Activity, fraction relative to the maximum activity determined for formoterol
Summary of the method: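 H292 cells, 5000/well, preincubated 10 min with rolipram (final 300 μM, 1.6% DMSO) in HEPES pH 7.4 HBSS, then compound 60 min at room temperature. Lysate cAMP quantified by AlphaScreen against a cAMP standard curve. pEC50 and intrinsic activity (fraction of formoterol maximum) from four-parameter logistic fits.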

T1 sequence (P07550 whole entry): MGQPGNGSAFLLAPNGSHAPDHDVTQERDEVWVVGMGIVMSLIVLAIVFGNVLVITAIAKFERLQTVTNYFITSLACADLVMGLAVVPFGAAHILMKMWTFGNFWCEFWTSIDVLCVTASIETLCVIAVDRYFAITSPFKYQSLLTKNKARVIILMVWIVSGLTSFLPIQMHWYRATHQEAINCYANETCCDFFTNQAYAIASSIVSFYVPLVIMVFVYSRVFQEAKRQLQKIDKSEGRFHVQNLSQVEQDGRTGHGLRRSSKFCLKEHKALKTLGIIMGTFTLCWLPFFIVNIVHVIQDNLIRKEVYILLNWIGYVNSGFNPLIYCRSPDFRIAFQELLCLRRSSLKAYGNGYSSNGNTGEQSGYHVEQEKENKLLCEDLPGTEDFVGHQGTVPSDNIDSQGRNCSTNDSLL

Row | β2 Int Act | Compound
1 | 0.86 | O=C(CCNCCc1cccc(C(F)(F)F)c1)N(CCNCCc1ccc(O)c2[nH]c(=O)sc12)C1CCCCCC1 [Example 82, N^1-Cycloheptyl-N^1-(2-{[2-(4-hydroxy-2-oxo-2,3-dihydro-1,3-benzothiazol-7-yl)ethyl]amino}ethyl)-N^3-{2-[3-(trifluoromethyl)phenyl]ethyl}-β-alaninamide bis-trifluoroacetic acid salt]
2 | 0.84 | C[C@H](CNCCC(=O)N(CCNCCc1ccc(O)c2[nH]c(=O)sc12)CC(C)(C)C)c1ccccc1 [Example 11, N-(2,2-Dimethylpropyl)-N-(2-{[2-(4-hydroxy-2-oxo-2,3-dihydro-1,3-benzothiazol-7-yl)ethyl]amino}ethyl)-N^3-[(2S)-2-phenylpropyl]-β-alaninamide bis-trifluoroacetic acid salt]
3 | 0.67 | COc1cccc(CCNCCC(=O)N(CCNCCc2ccc(O)c3[nH]c(=O)sc23)CC(C)(C)C)c1 [Example 43, N^1-(2,2-Dimethylpropyl)-N^1-(2-{[2-(4-hydroxy-2-oxo-2,3-dihydro-1,3-benzothiazol-7-yl)ethyl]amino}ethyl)-N^3-[2-(3-methoxyphenyl)ethyl]-β-alaninamide bis-trifluoroacetic acid salt]
4 | 0.65 | CC(C)(C)CN(CCNCCc1ccc(O)c2[nH]c(=O)sc12)C(=O)CCNCCc1ccc(Cl)c(Cl)c1 [Example 9, N^3-[2-(3,4-Dichlorophenyl)ethyl]-N-(2,2-dimethylpropyl)-N-(2-{[2-(4-hydroxy-2-oxo-2,3-dihydro-1,3-benzothiazol-7-yl)ethyl]amino}ethyl)-β-alaninamide bis-trifluoroacetic acid salt]
5 | 0.59 | CC(C)(CO)CN(CCNCCc1ccc(O)c2[nH]c(=O)sc12)C(=O)CCNCCc1ccccc1Cl [Example 65, N^3-[2-(2-Chlorophenyl)ethyl]-N^1-(3-hydroxy-2,2-dimethylpropyl)-N^1-(2-{[2-(4-hydroxy-2-oxo-2,3-dihydro-1,3-benzothiazol-7-yl)ethyl]amino}ethyl)-β-alaninamide bis-trifluoroacetic acid salt]
6 | 0.73 | CC(C)(C)CN(CCNCCc1ccc(O)c2[nH]c(=O)sc12)C(=O)CCNCCc1ccc(Cl)cc1 [Example 8, N^3-[2-(4-Chlorophenyl)ethyl]-N-(2,2-dimethylpropyl)-N-(2-{[2-(4-hydroxy-2-oxo-2,3-dihydro-1,3-benzothiazol-7-yl)ethyl]amino}ethyl)-β-alaninamide bis-trifluoroacetic acid salt]
7 | 0.55 | CC(C)(CN(CCNCCc1ccc(O)c2[nH]c(=O)sc12)C(=O)CCNCCc1ccccc1)c1ccccc1 [Example 45, N^1-(2-{[2-(4-Hydroxy-2-oxo-2,3-dihydro-1,3-benzothiazol-7-yl)ethyl]amino}ethyl)-N^1-(2-methyl-2-phenylpropyl)-N^3-(2-phenylethyl)-β-alaninamide bis-trifluoroacetic acid salt]
8 | 0.69 | Cc1cccc(CCNCCC(=O)N(CCNCCc2ccc(O)c3[nH]c(=O)sc23)CC(C)(C)C)c1 [Example 10, N-(2,2-Dimethylpropyl)-N-(2-{[2-(4-hydroxy-2-oxo-2,3-dihydro-1,3-benzothiazol-7-yl)ethyl]amino}ethyl)-N^3-[2-(3-methylphenyl)ethyl]-β-alaninamide bis-trifluoroacetic acid salt]
9 | 0.87 | O=C(CCNCCc1ccccc1)N(CCNCCc1ccc(O)c2[nH]c(=O)sc12)C1CCSCC1 [Example 62, N^1-(2-{[2-(4-Hydroxy-2-oxo-2,3-dihydro-1,3-benzothiazol-7-yl)ethyl]amino}ethyl)-N^3-(2-phenylethyl)-N^1-(tetrahydro-2H-thiopyran-4-yl)-β-alaninamide bis-trifluoroacetic acid salt]
10 | 0.74 | O=C(CCNCCc1ccc(F)c(F)c1)N(CCNCCc1ccc(O)c2[nH]c(=O)sc12)C1CCCCCC1 [Example 53, N^1-Cycloheptyl-N^3-[2-(3,4-difluorophenyl)ethyl]-N^1-(2-{[2-(4-hydroxy-2-oxo-2,3-dihydro-1,3-benzothiazol-7-yl)ethyl]amino}ethyl)-β-alaninamide bis-trifluoroacetic acid salt]
11 | 0.78 | O=C(CCNCCc1ccccc1Cl)N(CCNCCc1ccc(O)c2[nH]c(=O)sc12)C1CCC(F)(F)CC1 [Example 46, N^3-[2-(2-Chlorophenyl)ethyl]-N^1-(4,4-difluorocyclohexyl)-N^1-(2-{[2-(4-hydroxy-2-oxo-2,3-dihydro-1,3-benzothiazol-7-yl)ethyl]amino}ethyl)-β-alaninamide bis-trifluoroacetic acid salt]
12 | 0.89 | O=C(CCNCCc1ccc(Cl)s1)N(CCNCCc1ccc(O)c2[nH]c(=O)sc12)C1CCCCC1 [Example 72, N^3-[2-(5-Chloro-2-thienyl)ethyl]-N^1-cyclohexyl-N^1-(2-{[2-(4-hydroxy-2-oxo-2,3-dihydro-1,3-benzothiazol-7-yl)ethyl]amino}ethyl)-β-alaninamide bis-trifluoroacetic acid salt]
13 | 0.42 | CC(C)(C)CN(CCNCCc1ccc(O)c2[nH]c(=O)sc12)C(=O)CCNC(C)(C)Cc1ccccc1 [Example 38, N^3-(1,1-Dimethyl-2-phenylethyl)-N-(2,2-dimethylpropyl)-N-(2-{[2-(4-hydroxy-2-oxo-2,3-dihydro-1,3-benzothiazol-7-yl)ethyl]amino}ethyl)-β-alaninamide bis-trifluoroacetic acid salt]
14 | 0.75 | O=C(CCNCCc1ccc(O)cc1)N(CCNCCc1ccc(O)c2[nH]c(=O)sc12)C1CCCCC1 [Example 34, N-Cyclohexyl-N-(2-{[2-(4-hydroxy-2-oxo-2,3-dihydro-1,3-benzothiazol-7-yl)ethyl]amino}ethyl)-N^3-[2-(4-hydroxyphenyl)ethyl]-β-alaninamide bis-trifluoroacetic acid salt]
15 | 0.90 | O=C(CCNCCc1ccccc1Cl)N(CCNCCc1ccc(O)c2[nH]c(=O)sc12)C1CCCCC1 [Example 17, N^3-[2-(2-Chlorophenyl)ethyl]-N-cyclohexyl-N-(2-{[2-(4-hydroxy-2-oxo-2,3-dihydro-1,3-benzothiazol-7-yl)ethyl]amino}ethyl)-β-alaninamide bis-trifluoroacetic salt]
16 | 0.96 | O=C(CCNCCc1cccc(Cl)c1)N(CCNCCc1ccc(O)c2[nH]c(=O)sc12)C1CCOCC1 [Example 22, N^3-[2-(3-Chlorophenyl)ethyl]-N-(2-{[2-(4-hydroxy-2-oxo-2,3-dihydro-1,3-benzothiazol-7-yl)ethyl]amino}ethyl)-N-(tetrahydro-2H-pyran-4-yl)-β-alaninamide bis-trifluoroacetic acid salt]
17 | 0.97 | C[C@@H](CNCCC(=O)N(CCNCCc1ccc(O)c2[nH]c(=O)sc12)C1CCCCC1)c1ccccc1 [Example 20, N-Cyclohexyl-N-(2-{[2-(4-hydroxy-2-oxo-2,3-dihydro-1,3-benzothiazol-7-yl)ethyl]amino}ethyl)-N^3-[(2R)-2-phenylpropyl]-β-alaninamide bis-trifluoroacetic acid salt]
18 | 0.89 | CC(C)(C)CN(CCNCCc1ccc(O)c2[nH]c(=O)sc12)C(=O)CCNCCc1ccccc1 [Example 6, N-(2,2-Dimethylpropyl)-N-(2-{[2-(4-hydroxy-2-oxo-2,3-dihydro-1,3-benzothiazol-7-yl)ethyl]amino}ethyl)-N^3-(2-phenylethyl)-β-alaninamide bis-trifluoroacetic acid salt]
19 | 0.78 | CC(C)N(CCNCCc1ccc(O)c2[nH]c(=O)sc12)C(=O)CCNCCc1ccccc1 [Example 1, N-(2-{[2-(4-Hydroxy-2-oxo-2,3-dihydro-1,3-benzothiazol-7-yl)ethyl]amino}ethyl)-N-isopropyl-N^3-(2-phenylethyl)-β-alaninamide bis-trifluoroacetic acid salt]
20 | 0.68 | CC(C)(C)CN(CCNCCc1ccc(O)c2[nH]c(=O)sc12)C(=O)CCNCCc1cccc(Cl)c1 [Example 7, N^3-[2-(3-Chlorophenyl)ethyl]-N-(2,2-dimethylpropyl)-N-(2-{[2-(4-hydroxy-2-oxo-2,3-dihydro-1,3-benzothiazol-7-yl)ethyl]amino}ethyl)-β-alaninamide bis-trifluoroacetic acid salt]
21 | 0.71 | O=C(CCNCCc1cccc(O)c1)N(CCNCCc1ccc(O)c2[nH]c(=O)sc12)C1CCCCCCC1 [Example 90, N^1-Cyclooctyl-N^1-(2-{[2-(4-hydroxy-2-oxo-2,3-dihydro-1,3-benzothiazol-7-yl)ethyl]amino}ethyl)-N^3-[2-(3-hydroxyphenyl)ethyl]-β-alaninamide bis-trifluoroacetic acid salt]
22 | 0.68 | COc1ccc(CCNCCC(=O)N(CCNCCc2ccc(O)c3[nH]c(=O)sc23)C2CCCCC2)cc1 [Example 68, N^1-Cyclohexyl-N^1-(2-{[2-(4-hydroxy-2-oxo-2,3-dihydro-1,3-benzothiazol-7-yl)ethyl]amino}ethyl)-N^3-[2-(4-methoxyphenyl)ethyl]-β-alaninamide bis-trifluoroacetic acid salt]
23 | 0.82 | O=C(CCNCCc1cccc(Cl)c1)N(CCNCCc1ccc(O)c2[nH]c(=O)sc12)C1Cc2ccccc2C1 [Example 42, N^3-[2-(3-Chlorophenyl)ethyl]-N^1-(2,3-dihydro-1H-inden-2-yl)-N^1-(2-{[2-(4-hydroxy-2-oxo-2,3-dihydro-1,3-benzothiazol-7-yl)ethyl]amino}ethyl)-β-alaninamide bis-trifluoroacetic acid salt]
24 | 0.92 | O=C(CCNCCc1cccs1)N(CCNCCc1ccc(O)c2[nH]c(=O)sc12)C1CCCCCC1 [Example 52, N^1-Cycloheptyl-N^1-(2-{[2-(4-hydroxy-2-oxo-2,3-dihydro-1,3-benzothiazol-7-yl)ethyl]amino}ethyl)-N^3-[2-(2-thienyl)ethyl]-β-alaninamide bis-trifluoroacetic acid salt]
